Experimental data reported in BigSolDB 2.1.

CCCN(CCc1cccs1)[C@H]1CCc2c(O)cccc2C1
solubility (mole fraction)
Settings	in ethanol	in ethyl acetate	in isopropanol	in isopropyl acetate	in methanol	in methyl acetate	in n-butanol	in n-butyl acetate	in n-propanol	in n-propyl acetate
278.15 K	0.00236	0.0243	0.00273	0.0201	0.00131	0.0124	0.00758	0.0311	0.00555	0.0247
283.15 K	0.00398	0.0303	0.00418	0.0257	0.00249	0.0167	0.0105	0.0368	0.00758	0.0305
288.15 K	0.00677	0.0369	0.00598	0.0314	0.00379	0.0211	0.0129	0.0433	0.0103	0.0371
293.15 K	0.00912	0.0437	0.00845	0.0381	0.00531	0.0262	0.0163	0.051	0.0138	0.0435
298.15 K	0.012	0.0512	0.0105	0.046	0.00696	0.0323	0.0222	0.0597	0.0175	0.052
303.15 K	0.0183	0.0601	0.0163	0.0553	0.0107	0.0393	0.0306	0.0688	0.0237	0.0612
308.15 K	0.0239	0.0707	0.0219	0.0661	0.0161	0.0482	0.0387	0.08	0.0298	0.0716
313.15 K	0.0345	0.0812	0.0311	0.0782	0.0248	0.0587	0.0467	0.0915	0.0399	0.0834
